Values joined by “and” are separate entries in the source; they are usually repeats but may differ in a detail not shown here. Equal values may be shown once.
Columns and labels:
[1] = tested on: HIV-specific polyfunctional CD8 T cells; experiment: Induced HIV-specific polyfunctional CD8+ T cells in PBMC cultures from HIV-1 infected subjects on cART; format: cell-based, human; conditions: for Median HIV-specific polyfunctional CD8 T cells (% proliferating CD8+ cells double positive for IFN-γ and TNF-α): HIV peptide pool, 5 subjects
[2] = tested on: serum cytokines and chemokines; experiment: Induction of cytokines and chemokines in serum of orally dosed Rhesus macaques (Luminex); format: in vivo
Experimental: The TLR8 modulator of Example 65 was formulated in 2% ethanol, 40% polyethylene glycol 300, and 58% 0.01 N hydrochloric acid. Oral solutions of formulations were prepared by dissolving a sufficient amount of the compound in the 2% ethanol, 40% polyethylene glycol 300, and 58% 0.01 N hydrochloric acid vehicle to arrive at 0.5, 1.5, or 5 mg/ml of Example 65. Rhesus macaques were dosed orally with 1.2 to 2 mls/kg to achieve dose levels of 1, 3, 6, or 10 mg/kg Example 65. Blood samples were collected at 2, 4, 8, 12, 24 and 48 hours postdose (FIG. 5) and allowed to clot under ambient conditions prior to centrifugation to obtain serum. The indicated cytokines and chemokines were quantified in serum with a multiplexed Luminex® assay following the manufacturer's instructions (Life Technologies). […] At 10 and 6 mg/kg, IL-12, IL-1RA and MCP-1 peaked near 10 ng/ml and IL-6 peaked at 1 ng/ml.

[3] = tested on: PBMC cultures from HIV-1 infected subjects on cART; experiment: Induced HIV-1 expression in PBMC cultures, HIV-1 RNA in supernatant after 4 days (COBAS TaqMan HIV-1 Test); format: cell-based, human; conditions: for N with ≥2-Fold-Activation: subjects; for Fold HIV-1 Activation: vs DMSO; for Geometric Mean with ≥2-Fold-Activation / Range with ≥2-Fold-Activation: N = 5
Experimental: In some experiments, IL-15, the TLR8 modulating compound of Example 15 or the combination of IL-15 and Example 15 were used at the indicated concentrations (Table 4). The cultures were maintained in the presence of antivirals (elvitegravir and efavirenz at 100 nM each) to prevent viral spread and amplification in order to measure the quantity of virus produced (latency reversal) by the TLR8 modulating compounds. At the end of the incubation period, cell-free culture supernatants were harvested and HIV-1 RNA levels were quantified by the COBAS® AmpliPrep/COBAS®TaqMan HIV-1 Test, v2.0 (Roche).
In each table, fold-activation is calculated as a ratio of HIV-1 RNA copies per ml of cell culture supernatants from TLR8 agonist treated samples and DMSO treated controls. Geometric mean fold-activation from three independent incubation samples for each condition of each subject's PBMCs. Values in bold indicate ≥2-fold HIV activation.
To assess if the latency reversal induced by TLR8 agonism could further potentiate latency reversal by a separate mechanisms, we treated cells as described above with IL-15, Example 15, or a combination of IL-15 and Example 15 (Table 4).

Compound: CCCCC(C)(CO)Nc1nc(N)nc2cc(F)cnc12 (stereo not drawn) [Example 98]
- Patients in whom increases in HIV-specific polyfunctional CD8 T cells were seen ([1]; 100 nM): 4 of 5
- Median HIV-specific polyfunctional CD8 T cells (% proliferating CD8+ cells double positive for IFN-γ and TNF-α) ([1]; 100 nM): 0.93%
- Patients in whom increases in HIV-specific polyfunctional CD8 T cells were seen ([1]; 1000 nM): 4 of 5
- Fold increase of median HIV-specific polyfunctional CD8 T cells ([1]; 1000 nM with HIV specific peptide pool vs vehicle, p<0.05): 7.1 fold
- Median HIV-specific polyfunctional CD8 T cells (% proliferating CD8+ cells double positive for IFN-γ and TNF-α) ([1]; 1000 nM): 0.92%

Compound: CCCC[C@](C)(CNC(C)=O)Nc1nc(N)nc2cc(Cl)cnc12 [Example 65]
- Induction of cytokines associated with TLR8 activation (IL-12, IL-6, IL-1RA, MCP-1) in serum ([2]; oral 1, 3, 6, or 10 mg/kg): induced in a dose-dependent manner
- IL-1RA peak serum concentration ([2]; oral 10 and 6 mg/kg): ~10 ng/mL
- IL-6 peak serum concentration ([2]; oral 10 and 6 mg/kg): 1 ng/mL
- IL-12 peak serum concentration ([2]; oral 10 and 6 mg/kg): ~10 ng/mL
- MCP-1 peak serum concentration ([2]; oral 10 and 6 mg/kg): ~10 ng/mL
- Time of peak serum cytokine concentrations post-dose ([2]; oral dosing): 2 h

Compound: IL-15: interleukin-15, used at 1 nM as a separate latency reversal stimulus
- Subjects with ≥2-Fold-Activation (%) ([3]; IL-15 1 nM): 66%
- Fold HIV-1 Activation, Geometric Mean ([3]; IL-15 1 nM, N = 6): 2.9 fold
- N with ≥2-Fold-Activation ([3]; IL-15 1 nM): 4 of 6
- Fold HIV-1 Activation ([3]; IL-15 1 nM, one value per subject (IDs 205-210)): 1.6 fold and 2.6 fold and 3.3 fold and 4.4 fold and 6.3 fold and 1.4 fold

Compound: CCC[C@@H](CO)Nc1nc(N)nc2cc(F)c(F)cc12 [Example 119, (S)-2-((2-amino-6,7-difluoroquinazolin-4-yl)amino)pentan-1-ol, reference compound]
- Subjects with ≥2-Fold-Activation (%) ([3]; 156 nM): (67) %
- Geometric Mean with ≥2-Fold-Activation ([3]; 156 nM): 4.2 fold
- Range with ≥2-Fold-Activation ([3]; 156 nM): 3.6-4.9 fold
- N with ≥2-Fold-Activation ([3]; 156 nM): 2 of 3
- Fold HIV-1 Activation ([3]; 156 nM, one value per subject (IDs 151-155)): 3.6 fold and 4.9 fold and 0.4 fold
- Subjects with ≥2-Fold-Activation (%) ([3]; 625 nM): (60) %
- Geometric Mean with ≥2-Fold-Activation ([3]; 625 nM): 4.1 fold
- Range with ≥2-Fold-Activation ([3]; 625 nM): 3.4-4.8 fold
- N with ≥2-Fold-Activation ([3]; 625 nM): 3 of 5
- Fold HIV-1 Activation ([3]; 625 nM, one value per subject (IDs 151-155)): 3.4 fold and 4.1 fold and 4.8 fold and 0.3 fold and 0.5 fold
- Subjects with ≥2-Fold-Activation (%) ([3]; 2,500 nM): (100) %
- Geometric Mean with ≥2-Fold-Activation ([3]; 2,500 nM): 3.6 fold
- Range with ≥2-Fold-Activation ([3]; 2,500 nM): 2.2-5.2 fold
- N with ≥2-Fold-Activation ([3]; 2,500 nM): 5 of 5
- Fold HIV-1 Activation ([3]; 2,500 nM, one value per subject (IDs 151-155)): 4.1 fold and 4.2 fold and 3.2 fold and 5.2 fold and 2.2 fold
- Geometric Mean with ≥2-Fold-Activation ([3]; 156, 625, or 2500 nM): 4.1 fold
- Range with ≥2-Fold-Activation ([3]; 156, 625, or 2500 nM): 2.2-5.2 fold
- N with ≥2-Fold-Activation ([3]; 156, 625, or 2500 nM): 5 out of 5 and 5 of 5
